Experimental data taken from paper PMC12146338, “Bioanalytical assay for the quantification of rucaparib in rat plasma using UPLC-MS/MS: development, and validation for interaction with myricetin” (Frontiers in Pharmacology, 2025).

Experiments:
[1] = Stability of rucaparib in rat plasma under different storage conditions (UPLC-MS/MS); assay type: in vitro ADME; details: n = 5
Protocol: The stability experiment was conducted at three different QCs (5.0, 200, and 400 ng/mL). It was carried out under various storage conditions, with each condition having five replicates (n = 5). These storage conditions encompassed stability within the analyzer (lasting for 4 h at 10°C), long-term storage (for 3 weeks at −80°C), short-term storage (for 3 h at room temperature) and freeze-thaw cycles (conducted three times).
The stability of rucaparib in rat plasma was examined under four distinct storage conditions. These included short-term storage (lasting 3 h at room temperature), exposure to three freeze-thaw cycles (transitioning from −80°C to room temperature), long-term storage (at −80°C for 21 days), and a 4 h placement in an autosampler maintained at 10°C.

[2] = Drug-drug interaction (DDI) pharmacokinetic study of rucaparib with or without myricetin in rats
Protocol: Twelve Sprague-Dawley (SD) male rats were provided with an appropriate environment with unrestricted water and food for seven consecutive days prior to the experiment. The day prior to the study, the rats underwent a 12-h period of fasting while being allowed unfettered access to water. Subsequently, they were randomly assigned to two groups (n = 6). Group A was received an oral dose of rucaparib at 20 mg/kg, while Group B was received an oral administration of rucaparib at 20 mg/kg along with myricetin at 50 mg/kg. The doses of rucaparib ([Augustine et al., 2019]) and myricetin ([Ye et al., 2024]) administered were determined based on prior literatures. Rucaparib was formulated in corn oil with myricetin prepared in 0.5% carboxymethylcellulose sodium (CMC-Na) solution. Group B rats were administered a single gavage of 50 mg/kg of myricetin, while Group A rats were received an equivalent volume of CMC-Na solution. Subsequently, at the 30 min mark, both groups were administered a single dose of 20 mg/kg of rucaparib. Before dosing (designated as 0 h) and at 1.5, 3, 4, 5, 6, 8, 12, 24 and 36 h post-dosing, 0.3 mL of plasma samples were drawn from the caudal vein. These samples were collected into heparin-containing tubes and then centrifuged at 8,000 rpm at 4°C for 10 min. Afterwards, the plasma was transferred to new tubes and preserved at −80°C for further analysis.
The DAS 3.0 software was used to calculate the pharmacokinetic parameters of rucaparib using a non-compartmental model. The key pharmacokinetic parameters of the two groups were analyzed using an independent samples t-test in SPSS 24.0. The p-value of less than 0.05 indicated a significant difference between the two groups. Mean plasma concentration-time curves were generated with GraphPad Prism 9.0 software (GraphPad Software Inc., California, United States).

[3] = design: method as in Ross and Kasum, 2002; details: ref Ross and Kasum, 2002; cited from earlier work
CYP2D6 = tested on: CYP2D6; design: method as in Lee et al., 2012; details: ref Lee et al., 2012; read-out: half-maximal inhibitory concentrations value, CYP2D6 metabolism; cited from earlier work
[4] = male, Sprague-Dawley, rat, in vivo, po, 20 mg/kg

CNCc1ccc(-c2[nH]c3cc(F)cc4c3c2CCNC4=O)cc1 [Rucaparib]
Stability RE (%) ([1]; added 5.0 ng/mL, Autosampler 10°C, 4 h): 1.5% | Stability RE (%) ([1]; added 5.0 ng/mL, Room temperature, 3 h): −4.2% | Stability RE (%) ([1]; added 5.0 ng/mL, Three freeze-thaw): −10.1% | Stability RE (%) ([1]; added 5.0 ng/mL, −80°C, 3 weeks): 5.7% | Stability RE (%) ([1]; added 200 ng/mL, Autosampler 10°C, 4 h): 1.4% | Stability RE (%) ([1]; added 200 ng/mL, Room temperature, 3 h): −11.5% | Stability RE (%) ([1]; added 200 ng/mL, Three freeze-thaw): −1.6% | Stability RE (%) ([1]; added 200 ng/mL, −80°C, 3 weeks): 9.2% | Stability RE (%) ([1]; added 400 ng/mL, Autosampler 10°C, 4 h): 8.1% | Stability RE (%) ([1]; added 400 ng/mL, Room temperature, 3 h): −3.1% | Stability RE (%) ([1]; added 400 ng/mL, Three freeze-thaw): −11.6% | Stability RE (%) ([1]; added 400 ng/mL, −80°C, 3 weeks): 1.4% | AUC(0-inf) [2, 4]: 1320 ng·h/mL | AUC(0-t) [2, 4]: 1220 ng·h/mL | CL/F [2, 4]: 294 mL/min/kg | Cmax [2, 4]: 126 ± 58.5 ng/mL | Tmax [2, 4]: 4.25 ± 1.78 h | half-life [2, 4]: 10.9 ± 3.41 h

O=c1c(O)c(-c2cc(O)c(O)c(O)c2)oc2cc(O)cc(O)c12 [myricetin]
effect on plasma exposure to rucaparib ([2]; rats, 50 mg/kg myricetin + 20 mg/kg rucaparib vs rucaparib alone, independent samples t-test, p < 0.05): no significant effect | bioavailability [3]: low bioavailability | IC50 (CYP2D6): 57 µM
